molecular target: hSTING(R232) (Homo sapiens, UniProt Q86WV6, H232R); experiment: Luciferase reporter assay in HEK293T-hSTING-Luciferase cells, R232 (wild type) human STING; format: cell-based; settings: 20 hr stimulation, read-out: R232 human activity (EC50 range)
Description: Stable Cell Line Generation • a) Stable STING expressing cells—Stable HEK293T STING-expressing cell lines were generated using plasmids purchased from Invivogen, CA, USA, that contain STING cDNA cloned into the pUNO-1 vector under hEF1-HTLV promoter and containing the Blasticidin selection cassette. The plasmids hSTING(R232), hSTING(H232), hSTING(HAQ) were directly procured from Invivogen while hSTING (AQ) and hSTING (Q) were derived from hSTING(HAQ) and hSTING (R232) plasmids respectively by using a PCR based site directed mutagenesis method. These vectors were individually transfected into HEK293T cells using Lipofectamine (Invitrogen) and transfected cells were selected under Blasticidin selection. These transfected cells were further subjected to clonal selection using the limiting dilution method to obtain clonally pure populations of HEK cells transfected with each of the above mentioned human STING variants. Only those clones were selected in which ligand independent activation of STING was minimal. • b) Stable Luciferase reporter gene expressing cells—Stable HEK293T Luciferase reporter gene expressing cell lines were generated using pCDNA4 plasmids under an IRF-inducible promoter. This promoter is comprised of five tandem interferon-stimulated response elements (ISRE) fused to an ISG54 minimal promoter. This vector was transfected into HEK293T cells using Lipofectamine (Invitrogen) and transfected cells were selected under Zeocin selection. These transfected cells were further subjected to clonal selection using the limiting dilution method to obtain clonally pure populations of HEK cells transfected the Luciferase reporter construct. Only those clones were selected in which ligand independent induction of luciferase was minimal.
5×10^5 clonally selected HEK293T-hSTING-Luciferase cells were seeded in 384-well plates in growth medium and stimulated with novel compounds. After 20 hr of stimulation supernatant were removed and secretary reporter gene activity were measured using the Quanti-Luc detection system (Invivogen) on a Spectramax i3X luminometer.
In the tables below, EC50 value ranges for exemplary compounds are given.
All compounds were first tested in a primary screen to obtain a ‘fold-induction’ over baseline levels of protein activity.

Chain of hSTING(R232) (Q86WV6 whole entry H232R): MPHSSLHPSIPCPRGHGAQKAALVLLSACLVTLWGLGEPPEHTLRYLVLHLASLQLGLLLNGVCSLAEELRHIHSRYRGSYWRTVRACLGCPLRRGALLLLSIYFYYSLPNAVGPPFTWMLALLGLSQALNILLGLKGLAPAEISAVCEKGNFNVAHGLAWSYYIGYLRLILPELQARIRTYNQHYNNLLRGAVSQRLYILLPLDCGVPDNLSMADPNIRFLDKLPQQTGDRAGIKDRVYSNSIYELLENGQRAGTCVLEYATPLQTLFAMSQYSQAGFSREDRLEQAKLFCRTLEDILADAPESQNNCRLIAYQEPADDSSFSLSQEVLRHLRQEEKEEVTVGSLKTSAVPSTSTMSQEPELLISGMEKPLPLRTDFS

Compound | EC50 [nM]
CN1Cc2ccc(C(=O)NCc3ccc4ccoc4c3)cc2N(Cc2c(F)cccc2Cl)C1=O [Example 52, N-(benzofuran-6-ylmethyl)-1-(2-chloro-6-fluorobenzyl)-3-methyl-2-oxo-1,2,3,4-tetrahydroquinazoline-7-carboxamide] | 1000 to 10000
CC1c2ccc(C(=O)NCc3c(F)cc(F)cc3F)cc2N(Cc2c(F)cccc2Br)C(=O)N1C (stereo not shown) [Example 158, 1-(2-bromo-6-fluorobenzyl)-3,4-dimethyl-2-oxo-N-(2,4,6-trifluorobenzyl)-1,2,3,4-tetrahydroquinazoline-7-carboxamide] | < 1000
CC1c2ccc(C(=O)NCc3ccccc3)cc2N(Cc2ccccc2)C(=O)N1C (stereo not shown) [Example 214, N,1-dibenzyl-3,4-dimethyl-2-oxo-1,2,3,4-tetrahydroquinazoline-7-carboxamide] | 1000 to 10000
C[C@H]1c2ccc(C(=O)NCc3ccc(F)cc3O)cc2N(Cc2c(F)cccc2Cl)C(=O)N1C [Example 253, (S)-1-(2-chloro-6-fluorobenzyl)-N-(4-fluoro-2-hydroxybenzyl)-3,4-dimethyl-2-oxo-1,2,3,4-tetrahydroquinazoline-7-carboxamide] | 1000 to 10000
C[C@H]1c2ccc(C(=O)NCc3c(F)cc(F)cc3F)cc2N(Cc2c(F)cc(OCCCN)cc2F)C(=O)N1C [Example 280, (S)-1-(4-(3-aminopropoxy)-2,6-difluorobenzyl)-3,4-dimethyl-2-oxo-N-(2,4,6-trifluorobenzyl)-1,2,3,4-tetrahydroquinazoline-7-carboxamide] | < 1000
COc1cccc(F)c1CNC(=O)c1ccc2c(c1)N(Cc1c(F)cccc1Cl)C(=O)N(C)C2 [Example 41, 1-(2-chloro-6-fluorobenzyl)-N-(2-fluoro-6-methoxybenzyl)-3-methyl-2-oxo-1,2,3,4-tetrahydroquinazoline-7-carboxamide] | > 10000
CN1Cc2ncc(C(=O)NCc3cc4ccccc4o3)cc2N(Cc2c(F)cccc2Cl)C1=O [Example 73, N-(benzofuran-2-ylmethyl)-1-(2-chloro-6-fluorobenzyl)-3-methyl-2-oxo-1,2,3,4-tetrahydropyrido[3,2-d]pyrimidine-7-carboxamide] | > 10000
CN1Cc2ccc(C(=O)NCc3cc4cc(F)ccc4o3)cc2N(Cc2c(F)cccc2Cl)C1=O [Example 24, 1-(2-chloro-6-fluorobenzyl)-N-((5-fluorobenzofuran-2-yl)methyl)-3-methyl-2-oxo-1,2,3,4-tetrahydroquinazoline-7-carboxamide] | 1000 to 10000
CN1Cc2ccc(C(=O)NCc3cccc(-c4ccn(C)n4)c3)cc2N(Cc2c(F)cccc2Cl)C1=O [Example 28, 1-(2-chloro-6-fluorobenzyl)-3-methyl-N-(3-(1-methyl-1H-pyrazol-3-yl)benzyl)-2-oxo-1,2,3,4-tetrahydroquinazoline-7-carboxamide] | > 10000
CN1CCN(c2cccc(CNC(=O)c3ccc4c(c3)N(Cc3c(F)cccc3Cl)C(=O)N(C)C4)c2)CC1 [Example 31] | > 10000
CC1c2ccc(C(=O)NCc3c(F)cc(F)cc3F)cc2N(Cc2c(F)cccc2Br)C(=O)N1C (stereo not shown) [Example 159, 1-(2-bromo-6-fluorobenzyl)-3,4-dimethyl-2-oxo-N-(2,4,6-trifluorobenzyl)-1,2,3,4-tetrahydroquinazoline-7-carboxamide] | < 1000
CN1Cc2ccc(C(=O)NCc3cccc(-c4ccnn4C)c3)cc2N(Cc2c(F)cccc2Cl)C1=O [Example 29, 1-(2-chloro-6-fluorobenzyl)-3-methyl-N-(3-(1-methyl-1H-pyrazol-5-yl)benzyl)-2-oxo-1,2,3,4-tetrahydroquinazoline-7-carboxamide] | > 10000
CN1Cc2ccc(C(=O)NCCn3cncn3)cc2N(Cc2c(F)cccc2Cl)C1=O [Example 26, N-(2-(1H-1,2,4-triazol-l-yl)ethyl)-1-(2-chloro-6-fluorobenzyl)-3-methyl-2-oxo-1,2,3,4-tetrahydroquinazoline-7-carboxamide] | > 10000
CC1c2ccc(C(=O)NCc3c(F)cc(F)cc3F)cc2N(Cc2cc(OCCO)ccc2F)C(=O)N1C (stereo not shown) [Example 233, 1-(2-fluoro-5-(2-hydroxyethoxy)benzyl)-3,4-dimethyl-2-oxo-N-(2,4,6-trifluorobenzyl)-1,2,3,4-tetrahydroquinazoline-7-carboxamide] | < 1000
CC1c2ccc(C(=O)NCc3c(F)cc(F)cc3F)cc2N(Cc2ccc(O)cc2F)C(=O)N1C (stereo not shown) [Example 181, 1-(2-fluoro-4-hydroxybenzyl)-3,4-dimethyl-2-oxo-N-(2,4,6-trifluorobenzyl)-1,2,3,4-tetrahydroquinazoline-7-carboxamide] | < 1000
C[C@H]1c2ccc(C(=O)NCc3c(F)cc(F)cc3F)cc2N(Cc2c(OCCOP(=O)(O)O)ccc(F)c2F)C(=O)N1C [Example 91, (S)-2-(2-((3,4-dimethyl-2-oxo-7-((2,4,6-trifluorobenzyl)carbamoyl)-3,4-dihydroquinazolin-1(2H)-yl)methyl)-3,4-difluorophenoxy)ethyl dihydrogen phosphate] | < 1000
COc1cccc(CN2C(=O)N(C)[C@@H](C)c3ccc(C(=O)NCc4c(F)cc(F)cc4F)cc32)c1F [Example 279, (S)-1-(2-fluoro-3-methoxybenzyl)-3,4-dimethyl-2-oxo-N-(2,4,6-trifluorobenzyl)-1,2,3,4-tetrahydroquinazoline-7-carboxamide] | < 1000
C[C@H]1c2ccc(C(=O)NCc3c(F)cc(F)cc3F)cc2N(Cc2c(F)ccc(OC(=O)N(C)CCC(=O)OCc3ccccc3)c2Cl)C(=O)N1C [Example 140, (S)-Benzyl 3-((2-chloro-3-((3,4-dimethyl-2-oxo-7-((2,4,6-trifluorobenzyl)carbamoyl)-3,4-dihydroquinazolin-1(2H)-yl)methyl)-4-fluorophenoxy)carbonyl)(methylamino)propanoate] | > 10000
CC1c2ccc(C(=O)NCc3c(F)cc(F)cc3F)cc2N(Cc2ccc(Cl)cc2F)C(=O)N1C (stereo not shown) [Example 219, 1-(4-chloro-2-fluorobenzyl)-3,4-dimethyl-2-oxo-N-(2,4,6-trifluorobenzyl)-1,2,3,4-tetrahydroquinazoline-7-carboxamide] | < 1000

Second part, the compound after the results:

EC50 [nM] | Compound
> 10000 | Cc1cc(CN2C(=O)N(C)Cc3ccc(C(=O)NCc4c(F)cc(F)cc4F)cc32)nn1C [Example 57, l-((l,5-dimethyl-1H-pyrazol-3-yl)methyl)-3-methyl-2-oxo-N-(2,4,6-trifluorobenzyl)-1,2,3,4-tetrahydroquinazoline-7-carboxamide]
< 1000 | Cc1cc(CN2C(=O)N(C)C(C)c3ccc(C(=O)NCc4c(F)cc(F)cc4F)cc32)ccn1 (stereo not shown) [Example 198, 3,4-dimethyl-1-((2-methylpyridin-4-yl)methyl)-2-oxo-N-(2,4,6-trifluorobenzyl)-1,2,3,4-tetrahydroquinazoline-7-carboxamide]
> 10000 | O=C(NCc1c(F)cc(F)cc1F)c1ccc2c(c1)N(Cc1c(F)cccc1Cl)C(=O)N(c1ncccn1)C2 [Example 21, 1-(2-chloro-6-fluorobenzyl)-2-oxo-3-(pyrimidin-2-yl)-N-(2,4,6-trifluorobenzyl)-1,2,3,4-tetrahydroquinazoline-7-carboxamide]
< 1000 | CN1Cc2ccc(C(=O)NCc3c(F)cc(F)cc3F)cc2N(Cc2c(F)cccc2Br)C1=O [Example 11, 1-(2-bromo-6-fluorobenzyl)-3-methyl-2-oxo-N-(2,4,6-trifluorobenzyl)-1,2,3,4-tetrahydroquinazoline-7-carboxamide]
< 1000 | Cc1ccc(Cl)c(CN2C(=O)N(C)Cc3ccc(C(=O)NCc4c(F)cc(F)cc4F)cc32)c1F [Example 66, 1-(6-chloro-2-fluoro-3-methylbenzyl)-3-methyl-2-oxo-N-(2,4,6-trifluorobenzyl)-1,2,3,4-tetrahydroquinazoline-7-carboxamide]
1000 to 10000 | Cc1nn(C)c(CN2C(=O)N(C)Cc3ccc(C(=O)NCc4c(F)cc(F)cc4F)cc32)c1Br [Example 67, 1-((4-bromo-1,3-dimethyl-1H-pyrazol-5-yl)methyl)-3-methyl-2-oxo-N-(2,4,6-trifluorobenzyl)-1,2,3,4-tetrahydroquinazoline-7-carboxamide]
> 10000 | O=C(NCc1c(F)cc(F)cc1F)c1ccc2c(c1)N(Cc1cc(F)cc(F)c1)C(=O)N(C1CC1)C2 [Example 3, 3-cyclopropyl-1-(3.5-difluorobenzyl)-2-oxo-N-(2,4,6-trifluorobenzyl)-1,2,3,4-tetrahydroquinazoline-7-carboxamide]
1000 to 10000 | Cc1oc(-c2ccc(F)cc2)nc1CN1C(=O)N(C)Cc2ccc(C(=O)NCc3c(F)cc(F)cc3F)cc21 [Example 42, l-((2-(4-fluorophenyl)-5-methyloxazol-4-yl)methyl)-3-methyl-2-oxo-N-(2,4,6-trifluorobenzyl)-1,2,3,4-tetrahydroquinazoline-7-carboxamide]
1000 to 10000 | CN1Cc2ccc(C(=O)NCc3c(F)cc(F)cc3F)cc2N(Cc2ccc(F)cc2Cl)C1=O [Example 17, 1-(2-chloro-4-fluorobenzyl)-3-methyl-2-oxo-N-(2,4,6-trifluorobenzyl)-1,2,3,4-tetrahydroquinazoline-7-carboxamide]
